Each structure is given as a SMILES string.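 Protocol summary: plate cells (96-well), add compound at 5 concentrations, incubate 48 h, interpolate endpoints linearly. Here, GI50 denotes the concentration required for 50% inhibition of growth.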 The source made the active and inactive calls. Rule as the data show it: active = GI50 up to about 1.1 µM and inactive = higher.

Among the test systems are CAKI-1; TK-10; M19-MEL; CCRF-CEM; HOP-62; HOP-92; NCI-H23; A549; 786-0; SK-MEL-28; EKVX; U-251; Malme-3M; SNB-75; MDA-N; NCI/ADR-RES; PC-3; HL-60; UACC-257; MCF7.
What all share (assay): growth of human tumour cells (NCI), 48 h

Take `COc1ccc(NC(=O)CC(=O)n2nc(-c3ccccc3)c(/N=N/c3ccccc3C(=O)O)c2-c2ccccc2)cc1`: the GI50 is > 100 µM (inactive) in the test on CAKI-1; > 100 µM (inactive) in the test with TK-10; > 100 µM (inactive) in the test on M19-MEL; > 100 µM (inactive) with CCRF-CEM; 30.1 µM (inactive) with HOP-62; 18.5 µM (inactive) in the test on HOP-92. The GI50 in the test with NCI-H23 is > 100 µM (inactive); in the test on A549 it was > 100 µM (inactive); in the test on 786-0, 21.9 µM (inactive); with SK-MEL-28, 74.5 µM (inactive); with EKVX, 34.6 µM (inactive); in the test on U-251, 42.6 µM (inactive).

As to `CCOC(=O)C/C(=N\c1cc(C)on1)N(CC)CC.[O-][Cl+3]([O-])([O-])O`, the GI50 in the test with CAKI-1, in the test on TK-10, in the test with M19-MEL, in the test on CCRF-CEM, in the test on HOP-62 and in the test with HOP-92 was > 100 µM (inactive) in each case. The GI50 with NCI-H23, in the test with Malme-3M, in the test with A549, in the test on 786-0, in the test on SK-MEL-28 and in the test with SNB-75 was > 100 µM (inactive) in each case. For the same compound, the GI50 in the test on EKVX and in the test with U-251 was > 100 µM (inactive) throughout.

On to `[O-][n+]1onc2c3nn(-c4ccccc4)nc3ccc21`, for which the GI50 in the test on CAKI-1 was > 100 µM (inactive); in the test on TK-10, > 71.1 µM (inactive); with MDA-N it was > 100 µM (inactive); with NCI/ADR-RES, > 100 µM (inactive); with CCRF-CEM, 25.6 µM (inactive); in the test on PC-3, > 83.2 µM (inactive). The GI50 in the test on HOP-62 was 77.1 µM (inactive); in the test on HL-60, 2.35 µM (inactive); in the test on HOP-92, > 100 µM (inactive); in the test on NCI-H23, 41.6 µM (inactive); in the test with Malme-3M, > 100 µM (inactive); in the test with A549, > 100 µM (inactive). The GI50 with UACC-257 is 28.8 µM (inactive); in the test with 786-0 it was > 100 µM (inactive); in the test with SK-MEL-28 it was > 100 µM (inactive); in the test with SNB-75, > 100 µM (inactive); in the test with EKVX, > 74.8 µM (inactive); in the test on U-251, > 100 µM (inactive). The GI50 with MCF7 is 7.69 µM (inactive).

For the compound `COc1ccc(Cc2c(=O)[nH]nc3ccccc23)cc1`, the GI50 with CAKI-1, in the test on TK-10, in the test with M19-MEL, with CCRF-CEM, in the test with HOP-62 and with HOP-92 was > 100 µM (inactive) throughout. Besides, the GI50 in the test with NCI-H23 was 61 µM (inactive); in the test with Malme-3M, > 100 µM (inactive); with A549, 43.6 µM (inactive); with UACC-257 it was > 100 µM (inactive); in the test with 786-0, > 100 µM (inactive); with SK-MEL-28, > 100 µM (inactive). Further, the values for the GI50 in the test with SNB-75 and with EKVX were 29 µM (inactive) and > 100 µM (inactive), respectively.

In the case of `CSc1nc2ccccc2c(=O)n1-c1cccc(C)c1`, the GI50 is 95.1 µM (inactive) in the test on CAKI-1; > 100 µM (inactive) in the test with TK-10; 23.6 µM (inactive) with MDA-N; 48.4 µM (inactive) in the test with NCI/ADR-RES; 32.6 µM (inactive) in the test with CCRF-CEM; 46.6 µM (inactive) with PC-3. Also, the GI50 is > 100 µM (inactive) in the test with HOP-62; 2.58 µM (inactive) in the test on HL-60; 26.5 µM (inactive) with HOP-92; > 100 µM (inactive) in the test on NCI-H23; > 100 µM (inactive) in the test with Malme-3M; 94.2 µM (inactive) in the test on A549. Besides, the GI50 in the test with UACC-257 is 31.1 µM (inactive); with 786-0, > 100 µM (inactive); in the test on SK-MEL-28, > 100 µM (inactive); with SNB-75, 32 µM (inactive); in the test on EKVX, 73.6 µM (inactive); with U-251 it was > 100 µM (inactive). Further, the GI50 in the test on MCF7 is 32.5 µM (inactive).

For the compound `COc1cc2c(cc1OC)C(=O)/C(=C/c1ccccc1)CC2`, the GI50 with CAKI-1 was 17.1 µM (inactive); in the test with TK-10 it was 33.4 µM (inactive); with MDA-N it was 12.4 µM (inactive); with NCI/ADR-RES, 17.3 µM (inactive); in the test with CCRF-CEM, 5.83 µM (inactive); in the test on PC-3, 42.5 µM (inactive). The GI50 in the test on HOP-62 was > 100 µM (inactive); with HL-60, 0.0426 µM (active); in the test on HOP-92 it was 24.8 µM (inactive); in the test on NCI-H23, > 100 µM (inactive); in the test with Malme-3M it was > 100 µM (inactive); in the test on A549 it was 27.7 µM (inactive). For the same compound, the GI50 with UACC-257 was 61.2 µM (inactive); in the test on 786-0, 34.9 µM (inactive); in the test with SK-MEL-28, 64.9 µM (inactive); in the test with SNB-75 it was 17 µM (inactive); in the test with EKVX, 56.1 µM (inactive); in the test with U-251 it was 53.2 µM (inactive). Moreover, the GI50 in the test with MCF7 is 27.3 µM (inactive).

`C=C1c2nc3ccccc3n2C=C(c2ccc(C)cc2)N1c1ccc(C)cc1`: the GI50 was > 100 µM (inactive) in the test with CAKI-1; > 100 µM (inactive) in the test with TK-10; 20.6 µM (inactive) with MDA-N; 17.9 µM (inactive) in the test on NCI/ADR-RES; 33 µM (inactive) in the test on CCRF-CEM; 28.6 µM (inactive) in the test on PC-3. Moreover, the GI50 in the test on HOP-62 is > 100 µM (inactive); with HL-60, 10.5 µM (inactive); in the test on HOP-92 it was 68.5 µM (inactive); in the test on NCI-H23, > 59.6 µM (inactive); in the test with Malme-3M, > 63.2 µM (inactive); in the test with A549, 52.6 µM (inactive). The GI50 with UACC-257 was 67.3 µM (inactive); with 786-0, 78.3 µM (inactive); in the test with SK-MEL-28, > 100 µM (inactive); with SNB-75, > 100 µM (inactive); in the test on EKVX, 46.6 µM (inactive); in the test with U-251, 86.3 µM (inactive). Besides, the GI50 in the test on MCF7 is 26.2 µM (inactive).

Turning to `Clc1ccc(CSCCc2ccncc2)cc1Cl`, the GI50 in the test on CAKI-1 was 38.5 µM (inactive); in the test on TK-10, 42.9 µM (inactive); in the test with MDA-N it was 20.2 µM (inactive); with NCI/ADR-RES, 19.7 µM (inactive); in the test with CCRF-CEM, 20.6 µM (inactive); in the test on PC-3 it was 21.2 µM (inactive). The GI50 with HOP-62 was 22.6 µM (inactive); with HL-60 it was 17 µM (inactive); in the test on HOP-92, 13.1 µM (inactive); in the test on NCI-H23, 22 µM (inactive); with Malme-3M it was 21 µM (inactive); with A549, 28.1 µM (inactive). For the same compound, the GI50 with UACC-257 was 35.9 µM (inactive); with 786-0, 17.2 µM (inactive); with SK-MEL-28, 22.7 µM (inactive); in the test on SNB-75, 22.9 µM (inactive); in the test with EKVX it was 20.4 µM (inactive); in the test with U-251, 15.2 µM (inactive). In the test on MCF7, the GI50 is 19.5 µM (inactive).

Regarding `COC(=O)C(Cc1c[nH]c2ccccc12)NC1=Nc2ccncc2S(=O)(=O)N1c1cccc(OC(C)C)c1` (configuration not stated), the GI50 in the test with CAKI-1 is 32.4 µM (inactive); in the test with TK-10 it was > 100 µM (inactive); with MDA-N, 67.3 µM (inactive); with NCI/ADR-RES, 20.9 µM (inactive); with CCRF-CEM it was 20.6 µM (inactive); in the test with PC-3 it was 39.9 µM (inactive). In addition, the GI50 in the test on HOP-62 was 56.2 µM (inactive); in the test with HL-60, 22.4 µM (inactive); in the test with HOP-92, 3.94 µM (inactive); in the test with NCI-H23 it was 20.1 µM (inactive); in the test with Malme-3M, 56.1 µM (inactive); with A549 it was 29.6 µM (inactive). Besides, the GI50 in the test with UACC-257 was > 100 µM (inactive); with 786-0, 34.2 µM (inactive); in the test with SK-MEL-28 it was > 100 µM (inactive); in the test with SNB-75, 53.2 µM (inactive); with EKVX it was 36.6 µM (inactive); with U-251, 47.6 µM (inactive). Also, in the test with MCF7, the GI50 was 24.7 µM (inactive).

In the case of `O=C1/C(=C/c2c(Cl)[nH]c3ccccc23)c2ccccc2N1c1ccccc1`, the GI50 was 8.3 µM (inactive) in the test with CAKI-1; 11.2 µM (inactive) in the test on TK-10; 1.85 µM (inactive) in the test with MDA-N; 2.24 µM (inactive) in the test on NCI/ADR-RES; 3.9 µM (inactive) in the test with CCRF-CEM; 4.28 µM (inactive) in the test with PC-3. The GI50 in the test on HOP-62 was 4.94 µM (inactive); in the test on HL-60 it was 3.01 µM (inactive); in the test on HOP-92 it was 9.44 µM (inactive); in the test on NCI-H23 it was 5.32 µM (inactive); with Malme-3M it was 5.79 µM (inactive); in the test on A549 it was 5.18 µM (inactive). Besides, the GI50 in the test with UACC-257 is 11.6 µM (inactive); in the test with 786-0, 6.56 µM (inactive); in the test with SK-MEL-28 it was 10.4 µM (inactive); with SNB-75, 6.81 µM (inactive); in the test with EKVX, 3.16 µM (inactive); with U-251, 5.05 µM (inactive). Further, the GI50 in the test with MCF7 is 4.02 µM (inactive).

For `C[C@@H](c1ccccc1)N1C[C@@H](c2ccc3c(c2)OCO3)[C@@H]2C(=O)CCC[C@@H]21`, the GI50 in the test on CAKI-1 was > 100 µM (inactive); with TK-10 it was > 100 µM (inactive); in the test with MDA-N, > 100 µM (inactive); in the test on NCI/ADR-RES it was 81.7 µM (inactive); with CCRF-CEM it was 61 µM (inactive); in the test with PC-3, 59.2 µM (inactive). Besides, the GI50 was > 100 µM (inactive) in the test with HOP-62; 34.1 µM (inactive) with HL-60; 47.1 µM (inactive) in the test on HOP-92; 61.8 µM (inactive) with NCI-H23; 31.3 µM (inactive) in the test on Malme-3M; 57.9 µM (inactive) in the test on A549. The GI50 in the test with UACC-257 was 50.2 µM (inactive); in the test with 786-0, 75.2 µM (inactive); with SK-MEL-28 it was 28.6 µM (inactive); with SNB-75, 36.4 µM (inactive); in the test on EKVX it was 69.3 µM (inactive); with U-251 it was 66.5 µM (inactive). The GI50 in the test on MCF7 was 27.8 µM (inactive).

The values are drawn from ChEMBL document CHEMBL1201862, “PubChem BioAssay data set” (2004).
